Where two headings read alike, the source gives them in different places. Where no end group is shown, it is not given here.
Legend:
[1] = tested on: C. albicans blastoconidia; details: for C. albicans: % killing at 50 μM dose (scoring): highest response seen used in the scoring; for anti-fungal (fungicidal) activity, in words: C. albicans blastoconidia; for C. albicans: LD50 (μM) for % killing: blastoconidia, 1 h at 37° C., pH 7.4
Text: C. albicans is a dimorphic yeast. It can exist in a yeast or blastoconidial form, which upon germination develops into the hyphal or germinated form. While the germinated form is considered to be more invasive, most of the C. albicans isolates harvested from the oral cavities of healthy individuals appear to be in the blastoconidial form. (Arendorf, T. M. et al. (1980), Arch. Oral Biol. 25:1-10; Gow, N.A.R. et al. (1987), Criti. Rev. Microbiol. 15:73-78; Odds, F. C. (1988), Candida and Candidosis, 2nd ed., Bailliere Tindall, London, England). Anti-fungal activity of synthetic histatin 5, histatin-based peptide 113, peptides based on portions of the amino acid sequences of histatin-based peptide 113 and peptides derived from histatin-based peptide 113 with specified amino acid substitutions was measured in assays designed to test the effectiveness of the peptides against the blastoconidia form of Candida (Table 1). These assays, which measure killing of blastoconidia of C. albicans, are described in Xu et al., which is herein incorporated by reference. (Xu, T. et al. (1991), Infect. Immun. 59(8):2549-2554).
A well-described strain of C. albicans was used in the bioassay. This strain, ATCC 44505, was originally isolated from the human oral cavity. Cultures were stored at 4° C. on Sabouraud dextrose agar plates (Difco Laboratories, Detroit, Mich.) until use. Stationary phase growth cells were obtained following growth at 30° C. for 18 h on Sabouraud dextrose agar plates. Colonies were harvested and suspended in 10 mM potassium phosphate buffer (PPB), pH 7.4.
To initiate log phase growth, an aliquot of stock C. albicans was suspended in Sabouraud dextrose broth (Difco) and incubated at 30° C. in a shaking water bath. The growth phase was determined by taking aliquots of the culture at one hour intervals to monitor the optical density (O.D.) at 560 nm. […] Log phase cells were harvested and utilized in the blastoconidia killing assay in a manner identical to that described for stationary phase cells. A final concentration of 10^5 cells/ml (either stationary or log phase fungus) was used in all assays.
The standard suspension buffer utilized in the blastospore killing assay was 0.01M PPB, pH 7.4. An alternate suspension buffer, N-2-hydroxyethylpiperazine-N'-2-ethanesulfonic acids (HEPES; Sigma Chemical Co., St. Louis, Mo.), pH 7.4, can also be utilized.
a. For the killing of blastoconidia assay, 50 μl aliquots of cells (2×10^5 cells/ml) diluted in suspension buffer were allowed to attach to a polystyrene 96-well micro-titer plate (COSTAR, Cambridge, Mass.) for 15 min at room temperature, and then incubated with an equal volume of a histatin or histatin peptide in suspension buffer for 1 h at 37° C. Controls were carried out in the absence of the histatin or histatin peptide. After incubation, wells were washed three times by centrifugation at 1,000 xg for 5 min and covered with aliquots of molten Sabouraud dextrose broth (Difco) containing 2% agarose (Sigma) at 45° C. The plate was then incubated at 30° C. for 8 h. Under such conditions, live cells will divide and begin to form colonies, while dead cells will remain as single cells. To determine the percentage of blastoconidia killed, a total of 100 single cells and/or colonies were counted under a Nikon inverted microscope at 400× magnification and the extent of killing was calculated using the formula: [1-(number of colonies in treated sample)/(number of colonies in control)]×100%.
Data were obtained by calculating the mean and standard deviation from triplicate assays.

Clostripain [2] = biological target: T1, Clostripain (Hathewaya histolytica, UniProt P09870); test: clostripain assay (BAPNA hydrolysis); format: biochemical, Clostridium histolyticum
T1 construct: purchased Sigma Chemical Corp., St. Louis, Mo
Description: (§1) Clostripain from Clostridium histolyticum (Sigma Chemical Corp., St. Louis, Mo.) was dissolved in deionized water to a concentration of 1 mg/mL (300 units/mg) and activated with the addition of 10 mmol/L DTT. To measure its hydrolytic activity, clostripain (6 units) was added to […] Hepes buffer, pH 7.5, containing 80 gmol/L BAPNA (benzoyl-arginine-p-nitroanilide), together with 5.6 μmol/L of histatin peptide inhibitor. As controls, assays were performed in the absence of any histatin peptide inhibitor. The activity was monitored continuously at 405 nm using a Molecular Devices VMax microtitre plate reader. The activities were determined from the maximum rates of substrate hydrolysis. Assays were done in duplicate, and the means normalized to the controls.

Clostripain [3] = biological target: T2, Clostripain (Hathewaya histolytica, UniProt P09870); test: clostripain assay (BAPNA hydrolysis); format: biochemical, Clostridium histolyticum; remark: listed apart in the source
T2 construct: purchased Sigma Chemical Corp., St. Louis, Mo
T2 sequence (P09870 whole entry, looked up): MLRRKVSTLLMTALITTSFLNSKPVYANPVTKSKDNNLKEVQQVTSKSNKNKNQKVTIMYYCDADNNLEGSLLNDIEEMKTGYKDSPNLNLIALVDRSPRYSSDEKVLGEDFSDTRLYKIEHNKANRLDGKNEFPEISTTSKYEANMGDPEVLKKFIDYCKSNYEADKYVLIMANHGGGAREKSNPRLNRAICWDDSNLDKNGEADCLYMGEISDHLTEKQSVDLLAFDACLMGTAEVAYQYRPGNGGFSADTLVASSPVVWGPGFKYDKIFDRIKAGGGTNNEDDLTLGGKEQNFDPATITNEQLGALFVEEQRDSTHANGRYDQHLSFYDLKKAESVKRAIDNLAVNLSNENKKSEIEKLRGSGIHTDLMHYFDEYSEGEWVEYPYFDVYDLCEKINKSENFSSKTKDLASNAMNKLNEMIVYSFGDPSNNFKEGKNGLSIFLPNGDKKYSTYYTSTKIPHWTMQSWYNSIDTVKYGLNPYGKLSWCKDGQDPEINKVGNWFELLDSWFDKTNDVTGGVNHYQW
Description: as §1

[4] = read-out: Clostripain: IC50 (μM) for inhibition of Clostripain

Substance | C. albicans: % killing at 50 μM dose (scoring) [1] | anti-fungal (fungicidal) activity, in words [1] | IC50 (Clostripain [2]) [µM] | clostripain inhibition, in words (Clostripain [2]) | clostripain inhibition, in words (Clostripain [3]) | C. albicans: LD50 (μM) for % killing [1] [µM] | IC50 (Clostripain [2]; [4]) [µM] | anti-fungal activity at pH 4.0, in words ([1]; pH 4.0)
AKRHHGYKR [peptide 120] | ++ (++20-50%) | C. albicans blastoconidia killing | > 50 | clostripain inhibition effects |  |  |  | 
AKRHHGYKRKF [peptide 118] | ++++ (++++80-100%) | C. albicans blastoconidia killing | 45 | clostripain inhibition effects |  |  |  | 
His 11: histatin 11 (SEQ ID NO: 11), subpeptide of peptide 113 (KRHHGYKR) | + (+<20%) |  |  |  | clostripain inhibition effects |  |  | 
AKRHHGYKRK [peptide 119] | ++ (++20-50%) | C. albicans blastoconidia killing | > 50 | clostripain inhibition effects |  |  |  | 
KRHHGYKRKF [peptide 129] |  |  |  | clostripain inhibition effects |  | 27 | 19 | 
AKRHHGYKRKFH [peptide 113] |  |  |  | clostripain inhibition effects |  | 5.8 | 25 | essentially devoid of anti-fungal activity
peptide 117: subpeptide of peptide 113 (SEQ ID NO: 19) (KRHHGYKRKFH) | ++++ (++++80-100%) | C. albicans blastoconidia killing |  |  | clostripain inhibition effects |  |  | 

From US5912230A, “Anti-fungal and anti-bacterial histatin-based peptides” (priority 1998, dated 1999)
